ChEMBL document CHEMBL5338793, “Discovery of Pyrimidinediamine Derivatives as Potent Methuosis Inducers for the Treatment of Triple-Negative Breast Cancer” (J Med Chem, 2023)
Calls of active or inactive are those of the source. The calls are words filed in the database; no cut-off is given here.

Legend:
[1] = Toxicity in mouse xenografted with human HCC1806 cells assessed as body weight change at 2.5 to 5 mg/kg, ip administered every 2 days for 15 days; format: organism-based; details: in vivo, 360 h, dose 2.5-5 mg/kg, time 15 day
HCC1806 [2] = assay: Antiproliferative activity against human HCC1806 cells assessed as inhibition of cell proliferation at 1.5 uM pretreated with Baf-A1 followed by compound addition measured after 24 hrs by SRB assay; format: functional, cell-based
HCC1806 [3] = assay: Induction of morphological changes in human HCC1806 cells assessed as intracellular vacuolization at 1.5 uM pretreated with Baf-A1 followed by compound addition measured after 24 hrs by microscopic analysis; format: functional, cell-based
HCC1806 [4] = assay: Antiproliferative activity against human HCC1806 cells assessed as inhibition of cell proliferation incubated for 24 hrs by SRB assay; format: functional, cell-based; details: HCC1806, 24 h
HCC1806 [5] = assay: Induction of morphological changes in human HCC1806 cells assessed as intracellular vacuolization at 1.5 uM measured after 12 to 24 hrs by microscopic analysis; format: functional, cell-based; details: time 12-24 hrs
HCC1806 [6] = assay: Upregulation of LC3-II level in human HCC1806 cells incubated for 24 hrs by Western blot analysis; format: functional, cell-based; details: dose <= 1.5 µM
HCC1806 [7] = assay: Induction of morphological changes in human HCC1806 cells assessed as intracellular vacuolization at 1 uM pretreated with Z-VAD-FMK followed by compound addition measured after 24 hrs by microscopic analysis; format: functional, cell-based
MDA-MB-468 [8] = assay: Antiproliferative activity against human MDA-MB-468 cells assessed as inhibition of cell proliferation at 1 uM pretreated with Z-VAD-FMK followed by compound addition measured after 24 hrs by SRB assay; format: functional, cell-based
184B5 [9] = assay: Cytotoxicity against human 184B5 cells assessed as reduction in cell viability at 2 uM incubated for 24 hrs by SRB assay; format: toxicity, cell-based; details: 184b5, 24 h
HCC1806 [10] = assay: Induction of macropinocytosis in human HCC1806 cells at 1.5 uM incubated for 24 hrs by LY staining based live cell imaging analysis; format: functional
HCC1806 [11] = assay: Antitumor activity against human HCC1806 cells xenografted in mouse assessed as tumor growth inhibition at 2.5 to 5 mg/kg, ip administered every 2 days for 15 days; format: functional, organism-based; details: dose 2.5-5 mg/kg, time 15.0 day
HCC1937 = assay: Antiproliferative activity against human HCC1937 cells assessed as inhibition of cell proliferation incubated for 24 hrs by SRB assay; format: functional, cell-based; details: HCC1937, 24 h
MDA-MB-468 [12] = assay: Induction of morphological changes in human MDA-MB-468 cells assessed as intracellular vacuolization at 1 uM measured after 24 hrs in presence of 3-MA by microscopic analysis; format: functional, cell-based
MDA-MB-468 [13] = assay: Induction of morphological changes in human MDA-MB-468 cells assessed as intracellular vacuolization at 1 uM incubated for 24 hrs by microscopic analysis; format: functional, cell-based
MDA-MB-468 [14] = assay: Upregulation of Rab7 level in human MDA-MB-468 cells at 1.5 uM incubated for 24 hrs by immunofluorescence microscopy; format: functional, cell-based
HCC1806 [15] = assay: Upregulation of Lamp1 level in human HCC1806 cells incubated for 24 hrs by Western blot analysis; format: functional, cell-based; details: dose <= 1.5 µM
HCC1806 [16] = assay: Antiproliferative activity against human HCC1806 cells assessed as inhibition of cell proliferation at 1 uM measured after 24 hrs in presence of 3-MA by SRB assay; format: functional, cell-based
HCC1806 [17] = assay: Induction of morphological changes in human HCC1806 cells assessed as intracellular vacuolization at 0.5 uM incubated for 24 hrs by microscopic analysis; format: functional, cell-based
HCC1806 [18] = assay: Induction of morphological changes in human HCC1806 cells assessed as rate of intracellular vacuolization at 1 uM incubated for 24 hrs by microscopic analysis relative to control; format: functional
[19] = Toxicity in mouse xenografted with human HCC1806 cells assessed as effect on CR level at 2.5 to 5 mg/kg, ip administered every 2 days for 15 days; format: organism-based; details: in vivo, 360 h, dose 2.5-5 mg/kg, time 15 day
MDA-MB-468 [20] = assay: Antiproliferative activity against human MDA-MB-468 cells assessed as inhibition of cell proliferation incubated for 24 hrs by SRB assay; format: functional, cell-based; details: MDA-MB-468, 24 h
HCC1806 [21] = assay: Induction of morphological changes in human HCC1806 cells assessed as intracellular vacuolization incubated for 24 hrs by microscopic analysis; format: functional, cell-based; details: dose 0.5-1.5 µM
HCC1806 [22] = assay: Upregulation of Lamp1 level in human HCC1806 cells at 1.5 uM incubated for 24 hrs by immunofluorescence microscopy; format: functional, cell-based
184B5 [23] = assay: Induction of morphological changes in human 184B5 cells assessed as intracellular vacuolization upto 2 uM incubated for 24 hrs by microscopic analysis; format: toxicity, cell-based; details: 184b5, 24 h
MDA-MB-468 [24] = assay: Upregulation of Lamp1 level in human MDA-MB-468 cells at 1.5 uM incubated for 24 hrs by immunofluorescence microscopy; format: functional, cell-based
MDA-MB-468 [25] = assay: Induction of morphological changes in human MDA-MB-468 cells assessed as intracellular vacuolization at 1 uM pretreated with Z-VAD-FMK followed by compound addition measured after 24 hrs by microscopic analysis; format: functional, cell-based
MDA-MB-468 [26] = assay: Upregulation of Lamp1 level in human MDA-MB-468 cells incubated for 24 hrs by Western blot analysis; format: functional, cell-based; details: dose <= 1.5 µM
HCC1806 [27] = assay: Upregulation of Rab7 level in human HCC1806 cells incubated for 24 hrs by Western blot analysis; format: functional, cell-based; details: dose <= 1.5 µM
MDA-MB-468 [28] = assay: Induction of morphological changes in human MDA-MB-468 cells assessed as intracellular vacuolization at 1.5 uM pretreated with Baf-A1 followed by compound addition measured after 24 hrs by microscopic analysis; format: functional, cell-based
MDA-MB-468 [29] = assay: Upregulation of Rab7 level in human […] cells incubated for 24 hrs by Western blot analysis; format: functional, cell-based; details: dose <= 1.5 µM
HCC1806 [30] = assay: Antiproliferative activity against human HCC1806 cells assessed as inhibition of cell proliferation at 2 uM incubated for 24 hrs by SRB assay relative to control; format: functional
MDA-MB-468 [31] = assay: Induction of morphological changes in human MDA-MB-468 cells assessed as intracellular vacuolization incubated for 24 hrs by microscopic analysis; format: functional, cell-based; details: dose 0.5-1.5 µM
MDA-MB-468 [32] = assay: Induction of macropinocytosis in human MDA-MB-468 cells at 1.5 uM incubated for 24 hrs by LY staining based live cell imaging analysis; format: functional
[33] = Toxicity in mouse xenografted with human HCC1806 cells assessed as effect on AST level at 2.5 to 5 mg/kg, ip administered every 2 days for 15 days; format: organism-based; details: in vivo, 360 h, dose 2.5-5 mg/kg, time 15 day
HCC1806 [34] = assay: Antiproliferative activity against human HCC1806 cells assessed as inhibition of cell proliferation at 1 uM incubated for 24 hrs by SRB assay relative to control; format: functional
[35] = Toxicity in mouse xenografted with human HCC1806 cells assessed as drug tolerance at 2.5 to 5 mg/kg, ip administered every 2 days for 15 days; format: organism-based; details: in vivo, 360 h, dose 2.5-5 mg/kg, time 15 day
HCC1806 [36] = assay: Upregulation of Rab7 level in human HCC1806 cells at 1.5 uM incubated for 24 hrs by immunofluorescence microscopy; format: functional, cell-based
HCC1806 [37] = assay: Antiproliferative activity against human HCC1806 cells assessed as inhibition of cell proliferation at 1 uM pretreated with Z-VAD-FMK followed by compound addition measured after 24 hrs by SRB assay; format: functional, cell-based
HCC1806 [38] = assay: Upregulation of p62 level in human HCC1806 cells incubated for 24 hrs by Western blot analysis; format: functional, cell-based; details: dose <= 1.5 µM
HCC1806 [39] = assay: Induction of morphological changes in human HCC1806 cells assessed as intracellular vacuolization at 1 uM measured after 24 hrs in presence of 3-MA by microscopic analysis; format: functional, cell-based
[40] = Toxicity in mouse xenografted with human HCC1806 cells assessed as effect on ALT level at 2.5 to 5 mg/kg, ip administered every 2 days for 15 days; format: organism-based; details: in vivo, 360 h, dose 2.5-5 mg/kg, time 15 day
MDA-MB-468 [41] = assay: Antiproliferative activity against human MDA-MB-468 cells assessed as inhibition of cell proliferation at 1.5 uM pretreated with Baf-A1 followed by compound addition measured after 24 hrs by SRB assay; format: functional, cell-based
MDA-MB-468 [42] = assay: Induction of morphological changes in human MDA-MB-468 cells assessed as intracellular vacuolization at 0.5 uM incubated for 24 hrs by microscopic analysis; format: functional, cell-based
MDA-MB-468 [43] = assay: Antiproliferative activity against human MDA-MB-468 cells assessed as inhibition of cell proliferation at 1 uM measured after 24 hrs in presence of 3-MA by SRB assay; format: functional, cell-based

In the case of `COc1cc(Nc2nc(N3CCNCC3)ncc2SC)ccc1NC(=O)c1cccc(Br)n1`, the Activity [1] is reported as “Non-Toxic”, the Activity (HCC1806 [2]) is reported as “inactive” and the Activity (HCC1806 [3]) is reported as “inactive”. The IC50 (HCC1806 [4]) was 700 nM, the Activity (HCC1806 [5]) was “Active” and the Activity (HCC1806 [6]) was “Dose-Dependent Effect”. The Activity (HCC1806 [7]) was “Active”, the Activity (MDA-MB-468 [8]) was “Active” and the Activity (184B5 [9]) was “Toxic”. For the same molecule, the Activity (HCC1806 [10]) was “Active”, the Activity (HCC1806 [11]) was “Active” and the IC50 (HCC1937) was 1030 nM. For the same molecule, the Activity (MDA-MB-468 [12]) was “Active”, the Activity (MDA-MB-468 [13]) was “Active” and the Activity (MDA-MB-468 [14]) was “Active”. The Activity (HCC1806 [15]) was “Dose-Dependent Effect”, the Activity (HCC1806 [16]) was “Active” and the Activity (HCC1806 [17]) was “Active”. The Activity (HCC1806 [18]) was 78.3%, the Activity [19] was “Non-Toxic” and the IC50 (MDA-MB-468 [20]) was 920 nM. For the same molecule, the Activity (HCC1806 [21]) was “Dose-Dependent Effect”, the Activity (HCC1806 [22]) was “Active” and the Activity (184B5 [23]) was “Non-Toxic”. The Activity (MDA-MB-468 [24]) was “Active”, the Activity (MDA-MB-468 [25]) was “Active” and the Activity (MDA-MB-468 [26]) was “Dose-Dependent Effect”. For the same molecule, the Activity (HCC1806 [27]) was “Dose-Dependent Effect”, the Activity (MDA-MB-468 [28]) was “inactive” and the Activity (MDA-MB-468 [29]) was “Dose-Dependent Effect”. For the same molecule, the inhibition at 2 µM (HCC1806 [30]) was 7.07%, the Activity (MDA-MB-468 [31]) was “Dose-Dependent Effect” and the Activity (MDA-MB-468 [32]) was “Active”. The Activity [33] was “Non-Toxic”, the inhibition at 1 µM (HCC1806 [34]) was 99.5% and the Activity [35] was “Non-Toxic”. The Activity (HCC1806 [36]) was “Active”, the Activity (HCC1806 [37]) was “Active” and the Activity (HCC1806 [38]) was “Dose-Dependent Effect”. For the same molecule, the Activity (HCC1806 [39]) was “Active”, the Activity [40] was “Non-Toxic” and the Activity (MDA-MB-468 [41]) was “inactive”. The Activity (MDA-MB-468 [42]) was “Active” and the Activity (MDA-MB-468 [43]) was “Active”.
